# Measured values taken from patent US20170001990A1 (Genentech, Inc., priority 2014, published 2017).
# Biological target: Human recombinant carboxy-terminal his-tagged LDHA (amino acids 2-332) (Homo sapiens, UniProt P00338)
# Assay: LDHA enzyme inhibition assay (NADH fluorescence)
# Conditions: LDHA IC50 (μM), 1 nM LDHA, NADH and pyruvate, stereochemistry of tested sample given
row,SMILES,IC50
1,"O=C1CC(c2ccsc2)(c2cccc(OCCCC(F)(F)F)n2)NC(=O)C1Sc1ccccc1Cl (single isomer, unassigned) [Example 121, 3-(2-chlorophenyl)sulfanyl-6-(3-thienyl)-6-[6-(4,4,4-trifluorobutoxy)-2-pyridyl]piperidine-2,4-dione]",0.008 µM
2,"O=C1CC(c2ccsc2)(c2cccc(Oc3ccc(F)c(Br)c3)n2)NC(=O)C1Sc1ccccc1Cl (single isomer, unassigned) [Example 122, 6-[6-(3-bromo-4-fluoro-phenoxy)-2-pyridyl]-3-(2-chlorophenyl)sulfanyl-6-(3-thienyl)piperidine-2,4-dione]",0.022 µM
3,"CC(C)CCOc1cccc(C2(c3ccsc3)CC(=O)C(Sc3ccccc3Cl)C(=O)N2)n1 (single isomer, unassigned) [Example 124, 3-((2-chlorophenyl)thio)-6-(6-(isopentyloxy)pyridin-2-yl)-6-(thiophen-3-yl)piperidine-2,4-dione]",0.003 µM
4,"O=C1CC(c2ccsc2)(c2cccc(OCCC3CCCC3)n2)NC(=O)C1Sc1ccccc1Cl (single isomer, unassigned) [Example 125, 3-((2-chlorophenyl)thio)-6-(6-(2-cyclopentyl-ethoxy)pyridin-2-yl)-6-(thiophen-3-yl) piperidine-2,4-dione]",0.003 µM
5,"CC(C)(O)CCCOc1cccc(C2(c3ccsc3)CC(=O)C(Sc3ccccc3Cl)C(=O)N2)n1 (single isomer, unassigned) [Example 126, 3-(2-chlorophenyl)sulfanyl-6-[6-(4-hydroxy-4-methyl-pentoxy)-2-pyridyl]-6-(3-thienyl) piperidine-2,4-dione]",0.238 µM
6,"O=C1CC(c2ccsc2)(c2cccc(Oc3cccc(C(F)F)c3)n2)NC(=O)C1Sc1ccccc1Cl (single isomer, unassigned) [Example 127, 3-(2-chlorophenyl)sulfanyl-6-[6-[3-(difluoromethyl)phenoxy]-2-pyridyl]-6-(3-thienyl)piperidine-2,4-dione]",0.008 µM
7,"O=C1CC(c2ccsc2)(c2cccc(Oc3cccc4ncccc34)n2)NC(=O)C1Sc1ccccc1Cl (single isomer, unassigned) [Example 128, 3-(2-chlorophenyl)sulfanyl-6-[6-(5-quinolyloxy)-2-pyridyl]-6-(3-thienyl) piperidine-2,4-dione]",0.024 µM
8,"O=C1CC(c2ccsc2)(c2cccc(Cc3cc(F)cc(F)c3)n2)NC(=O)C1Sc1ccccc1Cl (single isomer, unassigned) [Example 129, 3-((2-chlorophenyl)thio)-6-(6-(3,5-difluorobenzyl)pyridin-2-yl)-6-(thiophen-3-yl)piperidine-2,4-dione]",0.02 µM
9,"O=C1CC(c2ccsc2)(c2cccc(OCCC3CCC3)n2)NC(=O)C1Sc1ccccc1Cl (single isomer, unassigned) [Example 132, 3-((2-chlorophenyl)thio)-6-(6-(2-cyclobutyl-ethoxy)pyridin-2-yl)-6-(thiophen-3-yl)piperidine-2,4-dione]",0.009 µM
10,"CC(C)CCOc1cccc(C2(c3ccsc3)CC(=O)C(Sc3ccccc3Cl)C(=O)N2)n1 (single isomer, unassigned) [Example 133, 3-(2-chlorophenyl)sulfanyl-6-(6-isopentyloxy-2-pyridyl)-6-(3-thienyl) piperidine-2,4-dione]",0.089 µM
11,"O=C1CC(c2ccsc2)(c2cccc(OCCC3CCCC3)n2)NC(=O)C1Sc1ccccc1Cl (single isomer, unassigned) [Example 134, 3-(2-chlorophenyl)sulfanyl-6-[6-(2-cyclopentyl-ethoxy)-2-pyridyl]-6-(3-thienyl)piperidine-2,4-dione]",0.008 µM
12,"CC(C)(O)CCCOc1cccc(C2(c3ccsc3)CC(=O)C(Sc3ccccc3Cl)C(=O)N2)n1 (single isomer, unassigned) [Example 135, 3-(2-chlorophenyl)sulfanyl-6-[6-(4-hydroxy-4-methyl-pentoxy)-2-pyridyl]-6-(3-thienyl) piperidine-2,4-dione]",0.04 µM
13,"O=C1CC(c2ccsc2)(c2cccc(Oc3cccc(C(F)F)c3)n2)NC(=O)C1Sc1ccccc1Cl (single isomer, unassigned) [Example 136, 3-(2-chlorophenyl)sulfanyl-6-[6-[3-(difluoro-methyl)phenoxy]-2-pyridyl]-6-(3-thienyl) piperidine-2,4-dione]",0.222 µM
14,"O=C1CC(c2ccsc2)(c2cccc(Oc3cccc4ncccc34)n2)NC(=O)C1Sc1ccccc1Cl (single isomer, unassigned) [Example 137, 3-(2-chlorophenyl)sulfanyl-6-[6-(5-quinolyloxy)-2-pyridyl]-6-(3-thienyl) piperidine-2,4-dione]",0.073 µM
15,"O=C1CC(c2ccsc2)(c2cccc(OCCC3CCC3)n2)NC(=O)C1Sc1ccccc1Cl (single isomer, unassigned) [Example 141, 3-(2-chlorophenyl)sulfanyl-6-[6-(2-cyclobutyl-ethoxy)-2-pyridyl]-6-(3-thienyl)piperidine-2,4-dione]",0.003 µM
16,"O=C1CC(c2ccsc2)(c2cccc(OCCCC(F)(F)F)n2)NC(=O)C1Sc1ccccc1Cl (single isomer, unassigned) [Example 142, 3-(2-chlorophenyl)sulfanyl-6-(3-thienyl)-6-[6-(4,4,4-trifluorobutoxy)-2-pyridyl]piperidine-2,4-dione]",0.031 µM
17,"CC(C)(O)CCOc1cccc(C2(c3ccsc3)CC(=O)C(Sc3ccccc3Cl)C(=O)N2)n1 (single isomer, unassigned) [Example 145, 3-(2-chlorophenyl)sulfanyl-6-[6-(3-hydroxy-3-methyl-butoxy)-2-pyridyl]-6-(3-thienyl)piperidine-2,4-dione]",0.088 µM
18,"O=C1CC(c2ccsc2)(c2cccc(OCCCC(F)(F)F)n2)NC(=O)C1Sc1ccccc1Cl (single isomer, unassigned) [Example 148, 3-(2-chlorophenyl)sulfanyl-6-(3-thienyl)-6-[6-(4,4,4-trifluorobutoxy)-2-pyridyl]piperidine-2,4-dione]",0.014 µM
19,"CC(C)(O)CCOc1cccc(C2(c3ccsc3)CC(=O)C(Sc3ccccc3Cl)C(=O)N2)n1 (single isomer, unassigned) [Example 155, 3-(2-chlorophenyl)sulfanyl-6-[6-(3-hydroxy-3-methyl-butoxy)-2-pyridyl]-6-(3-thienyl)piperidine-2,4-dione]",0.025 µM

# Results, then the molecule that gave them:
row,IC50,SMILES
1,0.033 µM,"O=C1CC(c2ccsc2)(c2cccc(Oc3ccc(F)c(Br)c3)n2)NC(=O)C1Sc1ccccc1Cl (single isomer, unassigned) [Example 143, 6-[6-(3-bromo-4-fluoro-phenoxy)-2-pyridyl]-3-(2-chlorophenyl)sulfanyl-6-(3-thienyl)piperidine-2,4-dione]"
2,0.143 µM,"O=C1CC(c2ccsc2)(c2cccc(Oc3ccc(F)c(C(F)(F)F)c3)n2)NC(=O)C1Sc1ccccc1Cl (single isomer, unassigned) [Example 144, 3-(2-chlorophenyl)sulfanyl-6-[6-[4-fluoro-3-(trifluoromethyl)phenoxy]-2-pyridyl]-6-(3-thienyl) piperidine-2,4-dione]"
3,0.189 µM,"O=C1CC(c2ccsc2)(c2cccc(Cc3cc(F)cc(F)c3)n2)NC(=O)C1Sc1ccccc1Cl (single isomer, unassigned) [Example 146, 3-(2-chlorophenyl)sulfanly-6-[6-[(3,5-difluorophenyl)methyl]-2-pyridyl]-6-(3-thienyl)piperidine-2,4-dione]"
4,0.069 µM,"O=C1CC(c2ccsc2)(c2cccc(Oc3ccc(F)c(Br)c3)n2)NC(=O)C1Sc1ccccc1Cl (single isomer, unassigned) [Example 149, 6-[6-(3-bromo-4-fluoro-phenoxy)-2-pyridyl]-3-(2-chlorophenyl)sulfanyl-6-(3-thienyl)piperidine-2,4-dione]"
5,0.072 µM,"COc1cc(F)cc(Cc2cccc(C3(c4ccsc4)CC(=O)C(Sc4ccccc4Cl)C(=O)N3)n2)c1 (single isomer, unassigned) [Example 156, 3-(2-chlorophenyl)sulfanyl-6-[6-[(3-fluoro-5-methoxy-phenyl)methyl]-2-pyridyl]-6-(3-thienyl) piperidine-2,4-dione]"
6,0.03 µM,"O=C1CC(c2ccsc2)(c2cccc(OC3CCCCC3)n2)NC(=O)C1Sc1ccccc1Cl (single isomer, unassigned) [Example 157, 3-(2-chlorophenyl)sulfanyl-6-[6-(cyclohexoxy)-2-pyridyl]-6-(3-thienyl) piperidine-2,4-dione]"
7,0.018 µM,"CC1(COc2cccc(C3(c4ccsc4)CC(=O)C(Sc4ccccc4Cl)C(=O)N3)n2)CC1 (single isomer, unassigned) [Example 158, 3-(2-chlorophenyl)sulfanyl-6-[6-[(1-methylcyclo-propyl)methoxy]-2-pyridyl]-6-(3-thienyl)piperidine-2,4-dione]"
8,0.004 µM,"CC(Oc1cccc(C2(c3ccsc3)CC(=O)C(Sc3ccccc3Cl)C(=O)N2)n1)C1CC1 (single isomer, unassigned) [Example 159, 3-((2-chlorophenyl)thio)-6-(6-(1-cyclopropyl-ethoxy)pyridin-2-yl)-6-(thiophen-3-yl)piperidine-2,4-dione]"
9,0.008 µM,"O=C1CC(c2ccsc2)(c2cccc(Sc3ccc(F)cc3)n2)NC(=O)C1Sc1ccccc1Cl (single isomer, unassigned) [Example 160, 3-(2-chlorophenyl)sulfanyl-6-[6-(4-fluorophenyl)sulfanyl-2-pyridyl]-6-(3-thienyl)piperidine-2,4-dione]"
10,0.019 µM,"O=C1CC(c2ccsc2)(c2cccc(OCCC3CCCCC3)n2)NC(=O)C1Sc1ccccc1Cl (single isomer, unassigned) [Example 161, 3-(2-chlorophenyl)sulfanyl-6-[6-(2-cyclohexylethoxy)-2-pyridyl]-6-(3-thienyl) piperidine-2,4-dione]"
11,0.194 µM,"O=C1CC(c2ccsc2)(c2cccc(OCC3CCOCC3)n2)NC(=O)C1Sc1ccccc1Cl (single isomer, unassigned) [Example 163, 3-((2-chlorophenyl)thio)-6-(6-((tetrahydro-2H-pyran-4-yl)methoxy)pyridin-2-yl)-6-(thiophen-3-yl)piperidine-2,4-dione]"
12,0.004 µM,"O=C1CC(c2ccsc2)(c2cccc(OCC3CC(F)(F)C3)n2)NC(=O)C1Sc1ccccc1Cl (single isomer, unassigned) [Example 165]"
